From patent US20230265151A1, “GIP/GLP1 CO-AGONIST COMPOUNDS” (priority 2020, published 2023)
Like-named read-outs stand apart in the source and are kept apart here.

What was measured:
hGIPR = biological target: T1, hGIPR (Homo sapiens, UniProt P48546); assay: Functional cAMP formation (HTRF) in HEK-293 clonal cells expressing hGIPR, 0.1% bovine casein, without or with 1.0% human serum albumin; assay type: cell-based; conditions: for Emax: read-out: hGIPR Emax, % ± SEM; for EC50: cAMP, 0.1% bovine casein (no human serum albumin), geometric mean, read-out: hGIPR EC50, nM (SEM, n)
T1 construct: expressed in transfected cells
T1 sequence (P48546 22-466): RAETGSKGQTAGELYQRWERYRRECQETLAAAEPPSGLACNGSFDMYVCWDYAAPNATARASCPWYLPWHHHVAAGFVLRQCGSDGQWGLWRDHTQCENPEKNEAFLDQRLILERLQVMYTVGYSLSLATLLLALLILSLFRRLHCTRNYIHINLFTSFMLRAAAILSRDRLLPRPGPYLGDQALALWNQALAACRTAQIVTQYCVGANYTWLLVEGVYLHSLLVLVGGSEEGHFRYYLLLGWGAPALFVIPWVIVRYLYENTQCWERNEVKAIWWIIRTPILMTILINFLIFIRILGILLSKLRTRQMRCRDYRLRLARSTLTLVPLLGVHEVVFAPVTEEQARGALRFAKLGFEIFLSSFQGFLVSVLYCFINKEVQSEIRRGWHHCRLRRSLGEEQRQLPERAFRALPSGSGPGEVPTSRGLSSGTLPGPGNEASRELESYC
Experimental: (§1) After a 30-min incubation at 37° C., the resulting increase in intracellular cAMP is quantitatively determined using a CisBio cAMP Dynamic 2 HTRF Assay Kit (62AM4PEJ). Briefly, cAMP levels within the cell are detected by adding the cAMP-d2 conjugate in cell lysis buffer (10 µL) followed by the antibody anti-cAMP-Eu^3+-Cryptate, also in cell lysis buffer (10 µL). The resulting competitive assay is incubated for at least 60 min at room temperature, and then is detected using a PerkinElmer Envision® instrument with excitation at 320 nm and emission at 665 nm and 620 nm. Envision units (emission at 665 nm/620 nm* 10,000) are inversely proportional to the amount of cAMP present and are converted to nM cAMP per well us-ing a cAMP standard curve. […] A relative EC50 value and percent top (Emax) are derived by non-linear regression analysis using the percent maximal response vs. the concentration of peptide added, fitted to a four-parameter logistic equation.

hGCGR = biological target: T2, hGCGR (Homo sapiens, UniProt P47871); assay: Functional cAMP formation (HTRF) in HEK-293 clonal cells expressing hGCGR, 0.1% bovine casein, without or with 1.0% human serum albumin; assay type: cell-based; conditions: geometric mean, read-out: hGCGR EC50, nM (SEM, n)
T2 construct: expressed in transfected cells
T2 sequence (P47871 26-477): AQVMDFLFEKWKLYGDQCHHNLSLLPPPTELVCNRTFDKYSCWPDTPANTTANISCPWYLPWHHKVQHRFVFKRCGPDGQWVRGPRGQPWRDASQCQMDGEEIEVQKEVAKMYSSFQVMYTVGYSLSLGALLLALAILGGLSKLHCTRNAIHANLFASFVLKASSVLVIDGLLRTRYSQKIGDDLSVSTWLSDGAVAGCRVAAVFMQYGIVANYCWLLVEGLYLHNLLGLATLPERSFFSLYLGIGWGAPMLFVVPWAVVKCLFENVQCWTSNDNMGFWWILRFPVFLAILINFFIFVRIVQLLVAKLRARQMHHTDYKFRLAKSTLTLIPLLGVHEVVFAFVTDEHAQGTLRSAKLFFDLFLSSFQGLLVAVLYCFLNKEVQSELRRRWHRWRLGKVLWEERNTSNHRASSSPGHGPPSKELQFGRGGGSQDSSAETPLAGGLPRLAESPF
Experimental: as §1

[1] = HEK293, percent of maximal response to GIP(1-42)NH2, 37° C., 0.1% bovine casein, arithmetic mean
[2] = cAMP, incubated at 37° C., 0.1% bovine casein (no human serum albumin)

CC[C@H](C)[C@H](NC(=O)[C@H](CC(C)C)NC(=O)[C@](C)(Cc1ccc(O)cc1)NC(=O)[C@@H](CCC(=O)O)NC(=O)[C@@H](NC(=O)[C@H](Cc1ccccc1)NC(=O)[C@H](CCC(=O)O)NC(=O)C(C)(C)NC(=O)[C@H](CCC(N)=O)NC(=O)[C@H](C)NC(=O)[C@H](CCCCNC(=O)COCCOCCNC(=O)COCCOCCNC(=O)CC[C@H](NC(=O)CCCCCCOc1ccc(C(=O)O)cc1)C(=O)O)NC(=O)[C@H](CCCN)NC(=O)[C@H](CC(=O)O)NC(=O)[C@H](CC(C)C)NC(=O)[C@](C)(CC(C)C)NC(=O)[C@@H](NC(=O)[C@H](CO)NC(=O)[C@H](Cc1ccncc1)NC(=O)[C@H](CC(=O)O)NC(=O)[C@H](CO)NC(=O)[C@@H](NC(=O)[C@](C)(Cc1ccccc1F)NC(=O)[C@@H](NC(=O)CNC(=O)[C@H](CCC(=O)O)NC(=O)C(C)(C)NC(=O)[C@@H](N)Cc1ccc(O)cc1)[C@@H](C)O)[C@@H](C)O)[C@@H](C)CC)[C@@H](C)CC)C(=O)N[C@@H](CCC(=O)O)C(=O)NCC(=O)NCC(=O)N[C@@H](CCCCNC(=O)COCCOCCNC(=O)COCCOCCNC(=O)CC[C@H](NC(=O)CCCCCCOc1ccc(C(=O)O)cc1)C(=O)O)C(=O)N[C@@H](CO)C(=O)N[C@@H](CO)C(=O)NCC(=O)N[C@@H](C)C(=O)N1CCC[C@H]1C(=O)N1CCC[C@H]1C(=O)N1CCC[C@H]1C(=O)N[C@@H](CO)C(N)=O [Example 125] showed an Emax (hGIPR; [1]) of 94.4%, an EC50 (hGIPR; incubated at 37° C.) of 0.0547 nM and an EC50 (hGCGR; [2]) greater than 9950 nM.

For CC[C@H](C)[C@H](NC(=O)[C@H](CC(C)C)NC(=O)[C@](C)(Cc1ccc(O)cc1)NC(=O)[C@@H](CCC(=O)O)NC(=O)[C@@H](NC(=O)[C@H](Cc1ccccc1)NC(=O)[C@H](CCC(=O)O)NC(=O)C(C)(C)NC(=O)[C@H](CCC(N)=O)NC(=O)[C@H](C)NC(=O)[C@H](CCCCNC(=O)COCCOCCNC(=O)COCCOCCNC(=O)CC[C@H](NC(=O)CCCc1ccc(C(C)(C)C)cc1)C(=O)O)NC(=O)[C@H](CCCN)NC(=O)[C@H](CC(=O)O)NC(=O)[C@H](CC(C)C)NC(=O)[C@](C)(CC(C)C)NC(=O)[C@@H](NC(=O)C(C)(C)NC(=O)[C@@H](NC(=O)[C@H](CC(=O)O)NC(=O)[C@H](CO)NC(=O)[C@@H](NC(=O)[C@](C)(Cc1ccccc1F)NC(=O)[C@@H](NC(=O)CNC(=O)[C@H](CCC(=O)O)NC(=O)C(C)(C)NC(=O)[C@@H](N)Cc1ccc(O)cc1)[C@@H](C)O)[C@@H](C)O)C(C)C)[C@@H](C)CC)[C@@H](C)CC)C(=O)N[C@@H](CCC(=O)O)C(=O)NCC(=O)NCC(=O)N[C@@H](CCCCNC(=O)COCCOCCNC(=O)COCCOCCNC(=O)CC[C@H](NC(=O)CCCc1ccc(C(C)(C)C)cc1)C(=O)O)C(=O)N[C@@H](CO)C(=O)N[C@@H](CO)C(=O)NCC(=O)N[C@@H](C)C(=O)N1CCC[C@H]1C(=O)N1CCC[C@H]1C(=O)N1CCC[C@H]1C(=O)N[C@@H](CO)C(N)=O [Example 177], the Emax (hGIPR; [1]) was 113% and the EC50 (hGCGR; [2]) was greater than 9950 nM.

CC[C@H](C)[C@H](NC(=O)[C@H](CCCN)NC(=O)[C@H](CC(=O)O)NC(=O)[C@H](CC(C)C)NC(=O)[C@](C)(CC(C)C)NC(=O)[C@@H](NC(=O)[C@H](CO)NC(=O)[C@H](CCCCNC(=O)COCCOCCNC(=O)COCCOCCNC(=O)CC[C@H](NC(=O)CCCCCCCCCCCCC(=O)O)C(=O)O)NC(=O)[C@H](CC(=O)O)NC(=O)[C@H](CO)NC(=O)[C@@H](NC(=O)[C@](C)(Cc1ccccc1F)NC(=O)[C@@H](NC(=O)CNC(=O)[C@H](CCC(=O)O)NC(=O)C(C)(C)NC(=O)[C@@H](N)Cc1ccc(O)cc1)[C@@H](C)O)[C@@H](C)O)[C@@H](C)CC)C(=O)N[C@@H](C)C(=O)N[C@@H](CCC(N)=O)C(=O)NC(C)(C)C(=O)N[C@@H](CCCCNC(=O)COCCOCCNC(=O)COCCOCCNC(=O)CC[C@H](NC(=O)CCCCCCCCCCCCC(=O)O)C(=O)O)C(=O)N[C@@](C)(Cc1ccccc1)C(=O)N[C@H](C(=O)N[C@H](CCC(=O)O)C(=O)N[C@@](C)(Cc1ccc(O)cc1)C(=O)N[C@@H](CC(C)C)C(=O)N[C@H](C(=O)N[C@@H](CCC(=O)O)C(=O)NCC(=O)NCC(=O)N1CCC[C@H]1C(=O)N[C@@H](CO)C(=O)N[C@@H](CO)C(=O)NCC(=O)N[C@@H](C)C(=O)N1CCC[C@H]1C(=O)N1CCC[C@H]1C(=O)N1CCC[C@H]1C(=O)N[C@@H](CO)C(N)=O)[C@@H](C)CC)[C@@H](C)CC [Example 109] gave an Emax (hGIPR; [1]) of 84.8%, an EC50 (hGIPR; incubated at 37° C.) of 0.0236 nM and an EC50 (hGCGR; [2]) greater than 9950 nM.

In the case of CC[C@H](C)[C@H](NC(=O)[C@H](CC(C)C)NC(=O)[C@](C)(Cc1ccc(O)cc1)NC(=O)[C@@H](CCC(=O)O)NC(=O)[C@@H](NC(=O)[C@H](Cc1ccccc1)NC(=O)[C@H](CCCCNC(=O)COCCOCCNC(=O)COCCOCCNC(=O)CCCCCCCCCCCCC(=O)O)NC(=O)C(C)(C)NC(=O)[C@H](CCC(N)=O)NC(=O)[C@H](C)NC(=O)[C@H](CCCCNC(=O)COCCOCCNC(=O)COCCOCCNC(=O)CCCCCCCCCCCCC(=O)O)NC(=O)[C@H](CCCN)NC(=O)[C@H](CC(=O)O)NC(=O)[C@H](CC(C)C)NC(=O)[C@](C)(CC(C)C)NC(=O)[C@@H](NC(=O)[C@H](CO)NC(=O)[C@H](Cc1ccc2ccccc2c1)NC(=O)[C@H](CC(=O)O)NC(=O)[C@H](CO)NC(=O)[C@@H](NC(=O)[C@](C)(Cc1ccccc1F)NC(=O)[C@@H](NC(=O)CNC(=O)[C@H](CCC(=O)O)NC(=O)C(C)(C)NC(=O)[C@@H](N)Cc1ccc(O)cc1)[C@@H](C)O)[C@@H](C)O)[C@@H](C)CC)[C@@H](C)CC)C(=O)N[C@@H](CCC(=O)O)C(=O)NCC(=O)NCC(=O)N1CCC[C@H]1C(=O)N[C@@H](CO)C(=O)N[C@@H](CO)C(=O)NCC(=O)N[C@@H](C)C(=O)N1CCC[C@H]1C(=O)N1CCC[C@H]1C(=O)N1CCC[C@H]1C(=O)N[C@@H](CO)C(N)=O [Example 255], the Emax (hGIPR; HEK293, 0.1% bovine casein and 1.0% human serum albumin, 37° C., percent of maximal response to GIP(1-42)NH2) is reported as 93.4%, the EC50 (hGIPR; 37° C.) is reported as 0.0213 nM and the EC50 (hGCGR; 0.1% bovine casein and 1.0% human serum albumin, 37° C.) is reported as greater than 9950 nM. It also gave an EC50 (hGCGR; cAMP, 37° C., 0.1% bovine casein (no human serum albumin)) greater than 9950 nM.

Compound CC[C@H](C)[C@H](NC(=O)[C@H](CC(C)C)NC(=O)[C@](C)(Cc1ccc(O)cc1)NC(=O)[C@@H](CCC(=O)O)NC(=O)[C@@H](NC(=O)[C@H](Cc1ccccc1)NC(=O)[C@H](CCC(=O)O)NC(=O)C(C)(C)NC(=O)[C@H](CCC(N)=O)NC(=O)[C@H](C)NC(=O)[C@H](CCCCNC(=O)COCCOCCNC(=O)COCCOCCNC(=O)CC[C@H](NC(=O)CCCCCCCCCCCCC(=O)O)C(=O)O)NC(=O)[C@H](CCCN)NC(=O)[C@H](CC(=O)O)NC(=O)[C@H](CC(C)C)NC(=O)[C@](C)(CC(C)C)NC(=O)[C@@H](NC(=O)[C@H](CO)NC(=O)[C@H](Cc1ccc(C(=O)O)cc1)NC(=O)[C@H](CC(=O)O)NC(=O)[C@H](CO)NC(=O)[C@@H](NC(=O)[C@](C)(Cc1ccccc1F)NC(=O)[C@@H](NC(=O)CNC(=O)[C@H](CCC(=O)O)NC(=O)C(C)(C)NC(=O)[C@@H](N)Cc1ccc(O)cc1)[C@@H](C)O)[C@@H](C)O)[C@@H](C)CC)[C@@H](C)CC)C(=O)N[C@@H](CCC(=O)O)C(=O)NCC(=O)NCC(=O)N[C@@H](CCCCNC(=O)COCCOCCNC(=O)COCCOCCNC(=O)CC[C@H](NC(=O)CCCCCCCCCCCCC(=O)O)C(=O)O)C(=O)N[C@@H](CO)C(=O)N[C@@H](CO)C(=O)NCC(=O)N[C@@H](C)C(=O)N1CCC[C@H]1C(=O)N1CCC[C@H]1C(=O)N1CCC[C@H]1C(=O)N[C@@H](CO)C(N)=O [Example 96] has an EC50 (hGCGR; [2]) greater than 9950 nM.
